From publication PMC10388363, “Novel 1,4-Dihydropyridines as Specific Binders and Activators of SIRT3 Impair Cell Viability and Clonogenicity and Downregulate Hypoxia-Induced Targets in Cancer Cells” (Journal of Medicinal Chemistry, 2023)
Where two headings read alike, the source gives them in different places.

Tests used:
CAL-62 cells [1] = assay: Cell viability / cell death, trypan blue exclusion, CAL-62; assay type: cell-based; conditions: for reduction of cell viability: CAL-62, 50 μM; for EC50: CAL-62, 48 h, read-out: EC50 cell death induction
Procedure: (§1) Afterward, the selected compounds 3a–d were assayed at 50 μM for 24 and 48 h in CAL-62 and MDA-MB-231 cells to assess their ability to impair the cell viability and colony formation in either normoxia or hypoxia-induced condition, the latter obtained by adding a 200 μM cobalt chloride solution, as described in previous reports[69] (Figure 8). Most cancer cells, mainly solid types, are known to have an altered metabolism due to hypoxia, a non-physiological level of oxygen tension, which contributes to therapy resistance by causing cellular quiescence.[70] Moreover, hypoxic cancer cells can induce several factors that lead to cell proliferation and colony formation.[71]
Breast cancer cell line MDA-MB-231, anaplastic thyroid cancer cell line CAL-62 and human keratinocytes HaCaT were purchased from ATCC and were cultured in RPMI 1640 medium (R0883 Sigma Aldrich-MERCK) (MDA-MB-231 and CAL-62) or DMEM medium (11965092, Gibco) supplemented with 10% fetal bovine serum (Sigma-Aldrich-MERCK, F9665), 2 mM glutamine (G7513; Sigma-Aldrich-MERCK), 100 units/mL penicillin and 0.1 mg/mL streptomycin (P0781; Sigma-Aldrich-MERCK). Adherent cells were detached by Trypsin–EDTA solution (TA049; Sigma-Aldrich-MERCK). Cells were maintained at 37 °C in humidified incubator with 5% CO2. Cells were treated with […] (CoCl2) (Merck; C8661) dissolved in distilled, sterile water for 24 h to induce hypoxia (200 μM). Hypoxic and normoxic cells were also treated with 10/50 μM of the indicated compounds (dissolved in DMSO) for 48 h, maintaining the CoCl2 in the culture medium for hypoxic conditions. SIRT3 inhibitor 3-TYP was dissolved in DMSO and added to a final concentration of 1 μM for 24 and/or 48 h.
Cell viability was assessed by the trypan blue exclusion assay. At the end of treatments, cells were harvested and stained with 0,4% trypan blue (Merck; T8154). The cell suspension was applied to a hemocytometer and counted with phase contrast microscopy (NIKON EclipseTE2000U, Nikon Netherlands, Amsterdam, The Netherlands).

[2] = tested on: SNAIL, SLUG, ZEB1, COL1A2, MMP2/9 expression in MDA-MB-231; assay: qRT-PCR of EMT master regulator and ECM genes in MDA-MB-231 cells; assay type: cell-based, human; conditions: 48 h; for EMT master regulator and ECM gene expression: MDA-MB-231, 10 μM; for SLUG expression / SNAIL, ZEB1, COLLAGEN, and MMP2/9 gene expression / SLUG gene expression / SNAIL, COL1A2, and MMP2/9 expression levels: MDA-MB-231, 50 μM; for SLUG expression / SNAIL, ZEB1, COLLAGEN, and MMP2/9 gene expression: hypoxic conditions (CoCl2); for SLUG gene expression / SNAIL, COL1A2, and MMP2/9 expression levels: normoxia
Procedure: Afterward, based on the double localization described for SIRT3, which was primarily found into the mitochondria but translocated into the nucleus in stressful conditions,[75] the effects of SIRT3 activators on gene expression regulation were evaluated in MDA-MB-231 cells.
Considering the previously described involvement of hypoxia in EMT induction,[78] we extended our biological study by analyzing the effects of SIRT3 activators on gene expression regulation under hypoxic conditions. Hypoxia induction of EMT was verified by gene expression analysis (upregulation of SNAIL, ZEB1, COLLAGEN, MMPs, and SLUG) after 72 h of treatment with CoCl2. In these experimental conditions, we verified the effectiveness of the previously tested SIRT3 activators 3c and 3d (50 μM, 48 h) in reducing EMT genes expression.
RNAs were extracted by ReliaPrep RNA tissue miniprep system (Promega, Madison, WI, USA) and reverse transcribed with an iScriptTM c-DNA synthesis kit (Bio-Rad Laboratories Inc., Hercules, CA, USA). Real-time (RT-qPCR) analyses were performed on cDNAs that were amplified by the qPCR reaction using GoTaq qPCR Master Mix (Promega, Madison, WI, USA). Relative amounts obtained with the 2(−ΔCt) method were normalized with respect to the housekeeping gene human L32. Statistical analysis was performed with GraphPad Prism 8, and differences in gene expression were considered significant with a p-value <0.05.

CAL-62 cells [3] = assay: Clonogenic assay, CAL-62; assay type: cell-based; conditions: Homo sapiens; CAL-62, 48 h, normoxia; read-out: IC50 against colonies formation
Procedure: as §1
Cells were seeded in a 100 mm dish and, once at 80–90% confluence, treated as described in the Results and Discussion section. After 24 and 48 h, cells were collected, counted, and 500 cells plated in a 100 mm dish. After about 7 days for CAL62 and 10 days for MDA-MB-231, plates were washed with phosphate-buffered saline solution (PBS); (Merck; 79382), and clones were fixed with 4% formaldehyde solution in PBS (Merck; F8775) at room temperature for 15 min. After that, the dishes were washed with PBS, and clones stained for 5 min with 0.5% crystal violet (Merck; C0775). Finally, the plates were washed with distilled water and air-dried. After scanning each individual dish, the colonies were counted the following day.

CAL-62 cells [4] = assay: Cell viability / cell death, trypan blue exclusion, CAL-62; assay type: cell-based; conditions: for IC50: read-out: IC50 cell viability reduction

SMILES: CCOC(=O)C1=CN(C(=O)c2cccc(OC)c2)C=C(C(=O)OCC)C1c1ccccc1 [Compound 3a, Diethyl 1-(3-methoxybenzoyl)-4-phenyl-1,4-dihydropyridine-3,5-dicarboxylate]
- reduction of cell viability (CAL-62 cells [1]; 24 h, normoxia): 37%
- reduction of cell viability (CAL-62 cells [1]; 48 h, hypoxia (200 μM CoCl2)): 59%
- reduction of cell viability (CAL-62 cells [1]; 48 h, normoxia): 64%

SMILES: CCOC(=O)C1=CN(C(=O)c2ccc(OC)c(OC)c2)C=C(C(=O)OCC)C1c1ccccc1 [Compound 3c, Diethyl 1-(3,4-dimethoxybenzoyl)-4-phenyl-1,4-dihydropyridine-3,5-dicarboxylate]
- EMT master regulator and ECM gene expression [2]: effective even at 10 μM
- SLUG expression [2]: affected
- SNAIL, ZEB1, COLLAGEN, and MMP2/9 gene expression [2]: impair
- SLUG gene expression [2]: not significantly affected
- SNAIL, COL1A2, and MMP2/9 expression levels [2]: reduce

SMILES: CCOC(=O)C1=CN(C(=O)c2cc(OC)cc(OC)c2)C=C(C(=O)OCC)C1c1ccccc1 [Compound 3d, Diethyl 1-(3,5-dimethoxybenzoyl)-4-phenyl-1,4-dihydropyridine-3,5-dicarboxylate]
- Cell death (%) T48 (CAL-62 cells [1]; CAL-62, 10 μM, 48 h): 36,6%
- reduction of cell viability (CAL-62 cells [1]; 24 h, normoxia): 55%
- reduction of cell viability (CAL-62 cells [1]; 48 h, hypoxia (200 μM CoCl2)): 80%
- reduction of cell viability (CAL-62 cells [1]; 48 h, normoxia): 90%
- EC50 (CAL-62 cells [1]; Homo sapiens, hypoxia): ~3.5 µM
- EC50 (CAL-62 cells [1]; Homo sapiens, normoxia): ~16.7 µM
- viability at 10 µM (CAL-62 cells [1]; Homo sapiens, CAL-62, 10 μM, 24 h, read-out: Cell viability (%) T24): 79.6%
- IC50 (CAL-62 cells [3]): ~2.5 µM
- EMT master regulator and ECM gene expression [2]: effective even at 10 μM
- SLUG expression [2]: affected
- SNAIL, ZEB1, COLLAGEN, and MMP2/9 gene expression [2]: impair
- SLUG gene expression [2]: not significantly affected
- SNAIL, COL1A2, and MMP2/9 expression levels [2]: reduce
- Cell death (%) T24 (CAL-62 cells [4]; CAL-62, 5 μM, 24 h): 14,3%
- Cell death (%) T48 (CAL-62 cells [4]; CAL-62, 5 μM, 48 h): 21,7%
- Cell death (%) T24 (CAL-62 cells [4]; CAL-62, 10 μM, 24 h): 20,4%
- Cell death (%) T24 (CAL-62 cells [4]; CAL-62, 25 μM, 24 h): 25,6%
- Cell death (%) T48 (CAL-62 cells [4]; CAL-62, 25 μM, 48 h): 66,1%
- higher efficacy in hypoxia than in normoxia (cell viability reduction and cell death induction) (CAL-62 cells [4]; CAL-62, 48 h): 4.8 fold
- IC50 (CAL-62 cells [4]; Homo sapiens, CAL-62, 48 h, hypoxia): ~3.5 µM
- IC50 (CAL-62 cells [4]; Homo sapiens, CAL-62, 48 h, normoxia): ~16.7 µM
- viability at 5 µM (CAL-62 cells [4]; Homo sapiens, CAL-62, 5 μM, 24 h, read-out: Cell viability (%) T24): 85.7%
- viability at 5 µM (CAL-62 cells [4]; Homo sapiens, CAL-62, 5 μM, 48 h, read-out: Cell viability (%) T48): 78.3%
- viability at 10 µM (CAL-62 cells [4]; Homo sapiens, CAL-62, 10 μM, 48 h, read-out: Cell viability (%) T48): 63.5%
- viability at 25 µM (CAL-62 cells [4]; Homo sapiens, CAL-62, 25 μM, 24 h, read-out: Cell viability (%) T24): 74.4%
- viability at 25 µM (CAL-62 cells [4]; Homo sapiens, CAL-62, 25 μM, 48 h, read-out: Cell viability (%) T48): 33.8%
